# Earlier results, collected in patent publication US20110236538A1, “CHITIN DERIVATIVE AND NATURAL SWEETENER CONJUGATE FOR CONTROLLING INGESTED FAT IN HUMANS AND HAVING SWEETENING PROPERTIES” (priority 2008, published 2011).
# Conditions: successive lines = successive pKa of di- and trivalent acids
smiles,measurement,value
O=C(O)C(Cl)(Cl)Cl [Trichloroacetic],pKa (25° C.),0.70
